From ChEMBL document CHEMBL4373724, “An overview of recent progress in siderophore-antibiotic conjugates” (2019)
Converted amounts (≈) assume the structure as drawn.

Columns and labels:
Assay type in all cases: functional
[1] = system: Mycobacterium tuberculosis; test: Antitubercular activity against extensively drug resistant Mycobacterium tuberculosis isolate 9
[2] = system: Mycobacterium tuberculosis; test: Antitubercular activity against multi drug resistant Mycobacterium tuberculosis isolate 4
[3] = system: Mycobacterium tuberculosis; test: Antitubercular activity against multi drug resistant Mycobacterium tuberculosis isolate 2
[4] = system: Mycobacterium tuberculosis; test: Antitubercular activity against extensively drug resistant Mycobacterium tuberculosis isolate 10
[5] = system: Mycobacterium tuberculosis; test: Antitubercular activity against multi drug resistant Mycobacterium tuberculosis isolate 1
[6] = system: Mycobacterium tuberculosis; test: Antitubercular activity against multi drug resistant Mycobacterium tuberculosis isolate 3
[7] = system: Mycobacterium tuberculosis; test: Antitubercular activity against multi drug resistant Mycobacterium tuberculosis isolate 7
[8] = system: Mycobacterium tuberculosis; test: Antitubercular activity against extensively drug resistant Mycobacterium tuberculosis isolate 11
[9] = system: Mycobacterium tuberculosis; test: Antitubercular activity against multi drug resistant Mycobacterium tuberculosis isolate 5
[10] = system: Mycobacterium tuberculosis; test: Antitubercular activity against extensively drug resistant Mycobacterium tuberculosis isolate 8
[11] = system: Mycobacterium tuberculosis; test: Antitubercular activity against multi drug resistant Mycobacterium tuberculosis isolate 6

Compound: CCCCCCCCCCCCCCCCC(=O)N(O)CCCC[C@H](NC(=O)[C@@H]1COC(c2ccccc2O)=N1)C(=O)NC[C@H](NC(=O)CCCO[C@H]1O[C@@H]2O[C@@]3(C)CC[C@H]4[C@H](C)CC[C@@H]([C@H]1C)[C@@]24OO3)C(=O)N[C@H]1CCCCN(O)C1=O
- MIC [1]: 0.078 mg/L (≈ 0.0668 µM)
- MIC [2]: 0.625 mg/L (≈ 0.535 µM)
- MIC [3]: 0.625 mg/L (≈ 0.535 µM)
- MIC [4]: 0.625 mg/L (≈ 0.535 µM)
- MIC [5]: 1.25 mg/L (≈ 1.07 µM)
- MIC [6]: 0.625 mg/L (≈ 0.535 µM)
- MIC [7]: 0.312 mg/L (≈ 0.267 µM)
- MIC [8]: 0.31 mg/L (≈ 0.265 µM)
- MIC [9]: 0.156 to 0.312 mg/L (≈ 0.134 to 0.267 µM)
- MIC [10]: 0.31 mg/L (≈ 0.265 µM)
- MIC [11]: 0.625 mg/L (≈ 0.535 µM)
